This note sets out measurements from patent US9782361B2 (Katholieke Universiteit Leuven, priority 2011, dated 2017).

In assay [1] the test system is 6 Hz corneal stimulation-induced seizures in mice. Briefly: 6 Hz psychomotor seizure model of partial epilepsy. The format is in vivo, mouse. The protocol:
For assessing the anti-convulsant activity of ar-Tumerone, the 6 Hz psychomotor seizure model of partial epilepsy (Barton M. E. et al., 2001) was used, thereby applying the following stimulation parameters: 6 Hz, 0.2 ms rectangular pulse width, 3 s duration.
Every mouse (male NMRI+/−30 g) was administered the compound (ar-tumerone 50 mg/kg, 20 mg/kg, 1 mg/kg and 100 μg/kg) or vehicle (PEG 200:DMSO 1:1) via i.p. injection. After 30 minutes of incubation, seizures were induced via corneal stimulation using the Ugo-Basil device. Prior to the placement of corneal electrodes, a drop of 0.5% xylocaine was applied to the eyes of the animal. Animals were restrained manually and released immediately in a transparent plastic cage following the stimulation. Then, the animal was observed. The seizure was characterized by stun, forelimb clonus, twitching of vibrissae, straub-tail for at least 45 s. Protection was defined as the absence of a seizure. A minimum of six animals per dose was used. […] Negative control (only vehicle) and positive control (valproic acid 300 mg/kg) were included as well. As expected, 6 out of 6 mice treated with only vehicle were not protected and 6 out of 6 mice treated with valproic acid were protected.

Assay [2] concerns PTZ-induced seizures in zebrafish larvae. Briefly: Zebrafish PTZ seizure assay (videotracking of larval locomotor activity). The format is in vivo. The protocol:
Zebrafish larvae from 7-dpf were tracked using the ViewPoint VideoTrack System for Zebrafish™ (Version 2.3.1.0, ViewPoint, France). The system consists of an infrared light source, a high-resolution digital videocamera to capture larval movements within a defined time period (30 minutes in our experimental set-up) and the software to analyze larval locomotor activity (FIG. 1).
The highest concentration tested corresponds to the previously determined MTC. Zebrafish larvae were placed in a 96-well plate (tissue culture plate, flat bottom, FALCON®, USA); one larva per well. Each row of the plate (12 wells) comprised different treatment groups. Two adjacent rows contain the same compound but received two different treatments: a) first row, embryo medium (DMSO 1%), and b) second row, PTZ 20 mM. The first two rows of the plate (vehicle control group, where vehicle was embryo medium) contained a volume of 100 μl of embryo medium (1% DMSO) per well. The following three test groups (two rows each) contained 100 μl of different concentrations of test compound in embryo medium. The larvae thus treated were incubated at room temperature in dark and quiet conditions for 1 hour. Embryo medium (100 μl) was added to the first rows of each one of the four groups. Likewise, 100 μl of PTZ 40 mM were added to the second rows of each treatment group (final concentration of PTZ: 20 mM). Thus, the movement pattern of the exposed zebrafish larvae was video-tracked and assessed in presence of embryo medium (1% DMSO) and PTZ 20 mM. Videotracking of larval movements was started 5 minutes after addition of embryo medium or PTZ to the wells and was recorded for 30 minutes. A total of 8 wells in each plate were left without larvae (medium only) as a negative control, so that each experimental parameter consisted of an average of 10 to 12 larvae. The tracker software measured three periods of 10 minutes of larvae movement. Results were registered as the average value of the total time of larvae movement during 30 minutes. The figures shown are representative of a series of two similar experiments.
All statistical analyses were performed using GraphPad Prism 5 software (GraphPad Software, Inc.). Values were presented as means±standard deviation (SD). The locomotor activity of zebrafish larvae was analyzed using one-way ANOVA followed by Dunnett's multiple comparison test. Statistically significant differences (p<0.05) between a treated group and the equivalent control groups (vehicle or PTZ) were considered indicative of decrease or increase in locomotor activity of zebrafish larvae. For mouse experiments, significant differences between estimated time intervals prior to above-mentioned seizure stages were calculated using the unpaired Student's t-test.

The subject of assay [3] is PTZ-induced seizures in mice. Kind of assay: Mouse PTZ-induced seizure assay (PTZ tail vein infusion). The format is in vivo.
Protocol: Mice were randomly divided into groups of five animals (vehicle (where vehicle was polyethylene glycol 200 (PEG200):water 1:1) and sample). The animals were pre-warmed under an infrared lamp for 10 minutes to dilate the tail veins. They were then placed in a restrainer and the lateral tail vein was catheterized with 1-cm long, 29-gauge needle. The needle was secured to the tail with surgical tape after confirming a correct placement. The needle was attached to a 0.7-m long polyethylene tubing connected to two 2.5-ml glass syringes containing: a) sample (control vehicle or test compounds) and b) PTZ (7.5 mg/ml ddH2O). These syringes were mounted on an infusion pump (ALADOIN-1000 11 VDC, 0.75 Å, World Precision Instruments). Thus, 100 μL of control vehicle (PEG 200: ddH2O 1:1) or test compounds (turmeric oil and ar-turmerone) were IV infused at the rate of 50 μl/min for 2 minutes. Ten minutes later, mice were released from the restrainer and placed in a transparent plastic cage for observation.
PTZ was constantly infused at the rate of 150 μl/min. Seizure manifestation stages in mice were scored according to the time between the start of PTZ infusion and the following behavioral events: ear, tail and myoclonic twitch, forelimb clonus, falling, tonic hindlimb extension and death (28). Behavior was observed up to 5 minutes of PTZ infusion. In case of any surviving mice, they were sacrificed.
PTZ doses were calculated according to the formula: PTZ dose [mg/kg]=(PTZ concentration [mg/ml]×infusion rate [ml/s]×infusion duration [s]×1000)/mouse weight [g]). All work solutions contained heparine (20 μl/ml).
All statistical analyses were performed using GraphPad Prism 5 software (GraphPad Software, Inc.). Values were presented as means±standard deviation (SD). […] For mouse experiments, significant differences between estimated time intervals prior to above-mentioned seizure stages were calculated using the unpaired Student's t-test.
The mark [4] stands for this setting: 10 μg/mL, 1 hour pre-incubation, PTZ 20 mM, 30 min tracking.
Where [5] appears, read: 46 μM, PTZ 20 mM, 30 min tracking.

Take `CC(C)=CC(=O)C[C@H](C)c1ccc(C)cc1` [ar-turmerone]: the “mice protected from seizures” value in assay [1] (100 μg/kg i.p., 30 minutes before stimulation, n=6) is “Six out of six”; in assay [1] (1 mg/kg i.p., 30 minutes before stimulation, n=6) it was “Six out of six”; in assay [1] (20 mg/kg i.p., 30 minutes before stimulation, n=6), “Six out of six”; in assay [1] (50 mg/kg i.p., 30 minutes before stimulation, n=6), “Six out of six”. Moreover, the “anticonvulsant activity (decrease of PTZ-induced seizure movements)” value in assay [2] (setting [4]) is on record as “Significant decrease of the seizures triggered by PTZ”; in assay [2] (setting [5]) it was “anticonvulsant activity”. The “required dose of PTZ to trigger all assessed events” value in assay [3] (50 mg/kg infused, tonic hindlimb extension p<0.05, other events and death p<0.01) is recorded as “significant resistance to the generation of seizures”. In addition, in assay [3] (200 mg/kg, ear, tail and myoclonic twitch, tonic hind limb extension and death (p<0.05)), the “PTZ dose for generating seizure behaviors” value is on record as “significant PTZ dose increase”.

Take `COc1cc(/C=C/C(=O)CC(=O)/C=C/c2ccc(O)c(OC)c2)ccc1O` [curcumin, reference compound]: in assay [2] (concentration not given), the “anticonvulsant activity (decrease of PTZ-induced seizure movements)” value was “potent activity in inhibiting PTZ-induced seizures”.

Consider `CN1C(=O)CN=C(c2ccccc2)c2cc(Cl)ccc21` [diazepam, reference compound], for which the “anticonvulsant activity (decrease of PTZ-induced seizure movements)” value in assay [2] (1.42 μg/ml, PTZ 20 mM, 30 min tracking) is “decreased PTZ-induced movements”; in assay [2] (14.23 μg/ml, PTZ 20 mM, 30 min tracking), “decreased PTZ-induced movements”.

For `O=C1NC(=O)C(c2ccccc2)(c2ccccc2)N1` [phenytoin, reference compound], the “anticonvulsant activity (decrease of PTZ-induced seizure movements)” value is “significant activity” in assay [2] (75 μg/ml, PTZ 20 mM, 30 min tracking) and “significant activity” in assay [2] (252.26 μg/ml, PTZ 20 mM, 30 min tracking).

For the molecule `CCCC(CCC)C(=O)[O-].[Na+]` [sodium valproate, reference compound], the “anticonvulsant activity (decrease of PTZ-induced seizure movements)” value in assay [2] (concentration not given) is on record as “able to control seizures generation”. Further, the “delay of seizure behaviors (PTZ tail infusion)” value in assay [3] (50 mg/kg, tonic hindlimb extension p<0.01, death p<0.05) is “capable of delaying tonic hindlimb extension”.

In the case of `CCCC(CCC)C(=O)O` [valproic acid, reference compound], in assay [1] (300 mg/kg, positive control), the “mice protected from seizures” value is reported as 6 out of 6.

Regarding α-atlantone, the “anticonvulsant activity (decrease of PTZ-induced seizure movements)” value is “Significant decrease of the seizures triggered by PTZ” in assay [2] (5 μg/mL, 1 hour pre-incubation, PTZ 20 mM, 30 min tracking); “Significant decrease of the seizures triggered by PTZ” in assay [2] (setting [4]); “anticonvulsant activity” in assay [2] (23 μM, PTZ 20 mM, 30 min tracking); “anticonvulsant activity” in assay [2] (setting [5]).
